Results from ChEMBL document CHEMBL1129133 (Bioorg Med Chem Lett, 1996).

How the values were obtained:
Phosphodiesterase 3 = Phosphodiesterase 3 (Homo sapiens, UniProt Q14432+Q13370); experiment: Inhibition of Phosphodiesterase 3 from rabbit platelets; design: species or system Oryctolagus cuniculus; details: target entry is the homologue from another species
Phosphodiesterase 1 = Phosphodiesterase 1 (Rattus norvegicus, UniProt Q63421+Q9EPR9+Q01066); experiment: Inhibition of Phosphodiesterase 1 from rat liver
[1] = molecular target: cGMP-specific 3',5'-cyclic phosphodiesterase (Homo sapiens, UniProt O76074); experiment: Inhibition of Phosphodiesterase 5 from human corpus cavernosum
[2] = Lipophilicity was determined; type: physicochemical; details: octanol/water

Which IC50 (Phosphodiesterase 3) does the source give for `CCCc1nn(C)c2c(=O)[nH]c(-c3ccccc3[N+](=O)[O-])nc12` here?
Its IC50 is over 100 µM.

What does the source list for `CCCOc1ccccc1-c1nc2[nH]nnc2c(=O)[nH]1` [ZAPRINAST]?
IC50 (Phosphodiesterase 3): > 100 µM; IC50 (Phosphodiesterase 1): 9.4 µM

Which IC50 [1] does the source give for `CCCc1nn(C)c2c(=O)[nH]c(-c3ccccc3OCC)nc12` here?
The IC50 was 0.027 µM.

And the logD [2]?
Its logD is 4.

What about the IC50 (Phosphodiesterase 3) of the same molecule?
The IC50 was over 100 µM.

And the IC50 (Phosphodiesterase 1)?
Its IC50 is 0.79 µM.

For `CCCc1nn(C)c2c(O)nc(-c3cc(S(=O)(=O)N4CCN(C(N)=O)CC4)ccc3OCC)nc12`, which logD [2] is on record?
The logD was 2.3.

And the IC50 (Phosphodiesterase 3)?
The IC50 was 34 µM.

And the IC50 (Phosphodiesterase 1)?
The IC50 was 0.11 µM.

For `CCCc1n[nH]c2c(=O)[nH]c(-c3ccccc3)nc12`, which IC50 (Phosphodiesterase 3) is on record?
Its IC50 is 63 µM.

Which results are given for `CCCc1nn(C)c2c(=O)[nH]c(-c3cc(S(=O)(=O)N4CCN(CCO)CC4)ccc3OCC)nc12` [LODENAFIL]?
logD [2]: 2; IC50 (Phosphodiesterase 3): 62 µM; IC50 (Phosphodiesterase 1): 0.46 µM

Which results are given for `CCCc1nn(C)c2c(=O)[nH]c(-c3cc(S(=O)(=O)N4CCNCC4)ccc3OCC)nc12`?
logD [2]: 1.5; IC50 (Phosphodiesterase 3): > 100 µM; IC50 (Phosphodiesterase 1): 0.39 µM

Which IC50 (Phosphodiesterase 3) does the source give for `CCOc1ccccc1-c1nc2c(C)nn(C)c2c(=O)[nH]1` here?
The IC50 was over 100 µM.

And the IC50 (Phosphodiesterase 1)?
The IC50 was 3.3 µM.

With `CCCc1n[nH]c2c(O)nc(-c3ccccc3O)nc12` as the molecule, how does the IC50 (Phosphodiesterase 3) read?
Its IC50 is over 100 µM.

With `CCCc1nn(C)c2c(=O)[nH]c(-c3ccccc3NS(C)(=O)=O)nc12` as the molecule, how does the IC50 (Phosphodiesterase 3) read?
Its IC50 is 83 µM.

Which logD [2] does the source give for `CCCc1nn(C)c2c(=O)[nH]c(-c3cc(S(=O)(=O)N4CCN(C)CC4)ccc3OCC)nc12` here?
Its logD is 2.7.

For `CCCc1nn(C)c2c(=O)[nH]c(-c3ccccc3OCC3CC3)nc12`, which IC50 (Phosphodiesterase 3) is on record?
The IC50 was 47 µM.

What does the source list for `CCCc1n[nH]c2c(O)nc(-c3ccccc3OCC)nc12`?
IC50 [1]: 0.082 µM; IC50 (Phosphodiesterase 1): 0.86 µM
